Data on six compounds can be found in patent US20100105636A1, “T-TYPE CALCIUM CHANNEL BLOCKER” (Nissan Chemical Industries, Ltd., priority 2003, published 2010).

Holding throughout (assay type): cell-based
Experiment [1] concerns the target T1, T-type Ca channel (α1G) (Homo sapiens, UniProt O43497).
T1 construct: expressed in transfected cells; host or cells: BHK (baby hamster kidney) cells
Description: Effect on T-type Ca channel expressed in BHK cells (whole cell patch clamp), Pharmacological Test Example 1. The note with it: BHK cells expressing T-type Ca channel (α1G), depolarization pulse −20 mV from −80 mV, 5 minutes after application, average value vs vehicle control (100%), read-out: Inhibition (%) of Ca current. The protocol:
Effect on T-Type Ca Channel Expressed in Mammalian Cells (BHK Cells)
(§1) An electrophysiological evaluation was carried out by use of BHK (baby hamster kidney) cells in which T-type Ca channel (α1G) was expressed according to the method of Wakamori M et al. (Wakamori M et al.: J Biol Chem 273, 34857-34867, 1998) based on the whole cell patch clamp method. Each Ca-ion current was measured through a patch clamp amplifier as an inward current when depolarization pulse (−20 mV) was applied to cells maintained at a membrane potential of −80 mV. Each compound was dissolved in extracellular solution and applied with perfusion. At 5 minutes after the application, any variation in Ca-ion current was measured. The results are shown in Table 1 as Ca current inhibition (%, average value) of the compound of the present invention to Ca current (100%) in vehicle control.

Experiment [2] deals with T1, T-type Ca channel (α1G). Put plainly: Effect on T-type Ca channel expressed in BHK cells (whole cell patch clamp), Pharmacological Test Example 2. The note with it: BHK cells expressing T-type Ca channel (α1G), depolarization pulse −20 mV from −80 mV, 5 minutes after application, average value vs vehicle control (100%), read-out: Inhibition (%) of Ca current, T-type. The protocol:
(§2) Effect on L-Type and T-Type Ca Channel Expressed in Mammalian Cells (BHK Cells)
as §1, with “which L-type Ca channel or” for “which”, “pulse (10 mV in L-type Ca channel, −20 mV in T-type Ca channel)” for “pulse (−20 mV)”, “mV. Compound (9)” for “mV. Each compound”, “Table 2” for “Table 1”
(In general: In patch-clamp work, channel activity is measured electrically.)

Experiment [3] relates to L-type Ca channel. Description: Effect on L-type Ca channel expressed in BHK cells (whole cell patch clamp), Pharmacological Test Example 2. The note with it: 10 μM; BHK cells expressing L-type Ca channel; depolarization pulse 10 mV from −80 mV; 5 minutes after application; average value vs vehicle control (100%). The protocol:
as §2
as §1, with “which L-type Ca channel or” for “which”, “pulse (10 mV in L-type Ca channel, −20 mV in T-type Ca channel)” for “pulse (−20 mV)”, “mV. Compound (9)” for “mV. Each compound”, “Table 2” for “Table 1”

T1 sequence (O43497 whole entry): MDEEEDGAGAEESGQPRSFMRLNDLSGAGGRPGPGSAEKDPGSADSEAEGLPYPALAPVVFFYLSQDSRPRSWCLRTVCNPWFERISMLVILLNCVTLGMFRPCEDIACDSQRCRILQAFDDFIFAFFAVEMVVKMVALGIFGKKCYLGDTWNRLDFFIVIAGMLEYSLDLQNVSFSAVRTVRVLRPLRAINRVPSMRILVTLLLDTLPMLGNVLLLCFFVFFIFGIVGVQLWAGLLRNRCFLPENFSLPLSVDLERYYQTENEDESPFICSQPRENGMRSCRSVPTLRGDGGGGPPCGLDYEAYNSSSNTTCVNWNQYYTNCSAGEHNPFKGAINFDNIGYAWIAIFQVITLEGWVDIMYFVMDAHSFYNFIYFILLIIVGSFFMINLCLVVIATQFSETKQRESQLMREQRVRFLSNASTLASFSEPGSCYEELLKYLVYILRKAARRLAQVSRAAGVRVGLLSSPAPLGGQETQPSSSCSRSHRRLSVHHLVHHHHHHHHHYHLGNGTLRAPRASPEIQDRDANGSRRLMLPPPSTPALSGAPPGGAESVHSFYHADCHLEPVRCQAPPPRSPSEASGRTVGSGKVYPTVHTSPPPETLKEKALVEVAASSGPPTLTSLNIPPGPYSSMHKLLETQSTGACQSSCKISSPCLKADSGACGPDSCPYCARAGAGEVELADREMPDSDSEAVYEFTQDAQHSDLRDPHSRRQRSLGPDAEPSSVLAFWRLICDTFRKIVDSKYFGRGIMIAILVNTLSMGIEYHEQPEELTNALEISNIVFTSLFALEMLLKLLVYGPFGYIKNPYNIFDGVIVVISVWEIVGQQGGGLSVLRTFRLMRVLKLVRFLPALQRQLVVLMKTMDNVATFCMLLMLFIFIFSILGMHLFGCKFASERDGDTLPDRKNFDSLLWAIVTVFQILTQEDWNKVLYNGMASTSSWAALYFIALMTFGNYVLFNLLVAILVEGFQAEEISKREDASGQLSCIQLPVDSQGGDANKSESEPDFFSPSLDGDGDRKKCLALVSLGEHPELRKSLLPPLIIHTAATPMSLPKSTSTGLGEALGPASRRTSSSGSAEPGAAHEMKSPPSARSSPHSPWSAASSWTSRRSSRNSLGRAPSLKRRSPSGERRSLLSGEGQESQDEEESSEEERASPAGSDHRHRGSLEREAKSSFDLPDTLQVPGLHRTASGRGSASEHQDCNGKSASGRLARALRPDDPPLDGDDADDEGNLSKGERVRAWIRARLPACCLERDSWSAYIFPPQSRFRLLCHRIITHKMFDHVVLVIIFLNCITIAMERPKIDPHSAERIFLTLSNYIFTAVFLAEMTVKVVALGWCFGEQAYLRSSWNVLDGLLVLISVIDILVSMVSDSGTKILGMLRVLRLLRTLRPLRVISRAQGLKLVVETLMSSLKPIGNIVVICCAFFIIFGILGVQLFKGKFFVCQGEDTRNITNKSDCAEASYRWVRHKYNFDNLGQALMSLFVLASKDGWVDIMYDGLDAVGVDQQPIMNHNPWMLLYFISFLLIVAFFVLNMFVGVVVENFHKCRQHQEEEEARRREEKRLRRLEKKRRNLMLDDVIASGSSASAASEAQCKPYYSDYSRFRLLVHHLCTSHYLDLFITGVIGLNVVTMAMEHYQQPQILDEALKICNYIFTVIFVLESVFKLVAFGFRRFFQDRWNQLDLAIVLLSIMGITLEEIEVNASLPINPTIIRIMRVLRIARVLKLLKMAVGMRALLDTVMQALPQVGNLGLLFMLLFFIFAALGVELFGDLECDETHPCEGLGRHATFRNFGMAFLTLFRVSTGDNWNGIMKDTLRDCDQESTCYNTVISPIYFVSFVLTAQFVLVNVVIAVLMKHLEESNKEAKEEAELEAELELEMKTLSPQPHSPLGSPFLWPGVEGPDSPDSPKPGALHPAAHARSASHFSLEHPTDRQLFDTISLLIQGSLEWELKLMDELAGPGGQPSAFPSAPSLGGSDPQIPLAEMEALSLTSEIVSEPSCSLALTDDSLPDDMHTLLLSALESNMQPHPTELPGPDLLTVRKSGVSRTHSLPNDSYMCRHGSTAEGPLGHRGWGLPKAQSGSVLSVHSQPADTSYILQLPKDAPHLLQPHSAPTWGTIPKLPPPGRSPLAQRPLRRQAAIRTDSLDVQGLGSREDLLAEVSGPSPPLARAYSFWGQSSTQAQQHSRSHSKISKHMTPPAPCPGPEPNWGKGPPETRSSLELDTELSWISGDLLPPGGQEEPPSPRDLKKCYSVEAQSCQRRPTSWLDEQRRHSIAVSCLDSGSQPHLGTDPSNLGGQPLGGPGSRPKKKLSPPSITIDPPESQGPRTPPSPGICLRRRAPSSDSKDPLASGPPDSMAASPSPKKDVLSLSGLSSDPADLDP

Regarding `COC(=O)C1=C(C)N(C)C(C)=C(C(=O)OC2CCCN(Cc3ccccc3)C2)C1c1cccc([N+](=O)[O-])c1` (stereo not shown) [Compound (8)], the inhibition (usually the percentage by which the read-out fell short of the control) at 10 µM in experiment [1] turned out to be 30%.
On the same count and under the same terms, the result for `Cc1nc(C)c(P2(=O)OCC(C)(C)CO2)c(-c2cccc([N+](=O)[O-])c2)c1C(=O)OCCN(Cc1ccccc1)c1ccccc1` [Compound (4)] reads 23.9%.
On to `CC1=C(C(=O)OCCN(Cc2ccccc2)c2ccccc2)C(c2cccc([N+](=O)[O-])c2)C(P2(=O)OCC(C)(C)CO2)=C(C)N1CCN1CCOCC1` (stereo not shown) [Compound (9)], for which the inhibition at 10 µM in experiment [2] stood at 48.9%. In experiment [3], the “Inhibition (%) of Ca current, L-type” value came out at 9.9%.
On to `Cc1nc(C)c(P2(=O)OCC(C)(C)CO2)c(-c2cccc([N+](=O)[O-])c2)c1C(=O)OCCN1CCN(C(c2ccccc2)c2ccccc2)CC1` [Compound (6)], for which, in experiment [1], the inhibition at 10 µM stood at 43.6%.
`COC(=O)c1c(C)nc(C)c(C(=O)OC2CCCN(Cc3ccccc3)C2)c1-c1cccc([N+](=O)[O-])c1` (stereo not shown) [Compound (7)]: in experiment [1], the inhibition at 10 µM is 45.8%.
Same read-out and setting: the same measure for `Cc1nc(C)c(P2(=O)OCC(C)(C)CO2)c(-c2cccc([N+](=O)[O-])c2)c1C(=O)OCCNc1ccccc1` [Compound (5)]: 53.9%.
